Measurements taken from US10344279B2, “Methods for the prevention and the treatment of extracapillary glomerulonephritis” (INSERM (Institut National de la Sante et de la Recherche …, priority 2014, dated 2019).

System: phospho-STAT3 (Tyr705)
Assay: Western blot of phospho-STAT3 in glomeruli / kidney cortex of NTS-challenged mice
Format: in vivo
Conditions: Stattic 25 mg/kg i.p. every other day, started with NTS; 129S2 mice; after 10 days of RPGN; vs vehicle
Description: Podocyte-specific disruption of Stat3 mice were generated by crossing podocin-Cre positive mice (63) with Stat3 floxed mice (64) on C57BL6/J background. Their age-matched littermates with no deletion of Stat3 in any cells are considered as controls. […] Stattic (25 mg/kg) was administered in i.p. way every other day for 10 days. 10 weeks old 129S2/SvPasCr male mice were randomly treated with Stattic and were compared to vehicle-treated (DMSO) littermates.
The glomerulonephritis was induced on male mice (10-12 weeks of age) by intravenous injection of 15 μL of sheep anti-glomerular basement membrane (GBM) nephrotoxic serum (NTS), which was diluted with 85 μL of sterile phosphate buffer solution. Serum injections were repeated twice (on days 2 and 3) at 6 μL/g of body weight and 7 μL/g respectively.
Mouse kidneys were extracted, minced, and digested in 2 mg/mL collagenase I solution (Gibco) in RPMI 1640 (Invitrogen) at 37° C. for 3 minutes, then filtered through a 70-μm cell strainer and one more through a 40-μm cell strainer. […] Podocyte outgrowth area was quantified at day 4 using ImageJ software.
After extraction from glomeruli or podocytes with lysis buffer, proteins were quantified by BCA protein assay kit (iNtRON Biotechnology). […] Protein loading was monitored by using the rat anti-tubulin antibody (Abeam). […] Densitometric analysis with ImageJ software was used for quantification.

O=[N+]([O-])c1ccc2c(c1)S(=O)(=O)C=C2 [Stattic]
STAT3 (Tyr705) phosphorylation in glomeruli: significantly reduced
